Results reported in patent US20130217639A1, “COMPOUND FOR ACTIVATING NATURAL KILLER T CELLS AND PREPARING METHOD THEREOF” (NATIONAL TSING HUA UNIVERSITY, priority 2012, published 2013).
“Also recorded” adds a separate entry of the source.

Tested on: human Vα24+/Vβ11+ iNKT cells
Assay: Stimulation of human Vα24+/Vβ11+ NKT cell populations in PBMC culture, flow cytometry
Assay type: cell-based
Conditions: PBMC from a normal healthy donor, 100 nM, 14 days of culture
Procedure: Peripheral blood mononuclear cells (PBMC) from a normal healthy donor were incubated with each individual compound at a final concentration of 100 nM. After 14 days of culture, NKT cell frequencies were determined by flow cytometry. NKT cell frequencies were defined as the percentage of Vα24+/V−β11+ cells among gated lymphocytes in the upper right (UR) corner for each case. Shown here are the profiles of PBMC harvested from 14-day cultures containing (a) vehicle alone (DMSO, UN), or (b) 100 nM of α-GalCer (KS), (c) analog 18 (DABB), or (d) analog 19 (DAGBB), as indicated.
The less toxic product mixtures were further examined. These sample mixtures after simple filtration through silica gel were submitted to analysis with ESI-MS. […] Among them, 4-benzyl benzoic acid derived amide product showing the most significant signals was resynthesized in both its ceramidic form 18 and galactosyl ceramidic form 19 (Scheme 6). The subsequent validation experiment was performed by MTT assay and flowcytotmetry (FIG. 4). […] This confirmed the important role played by sugar moieties.

Question: Which “stimulation of Vα24+/Vβ11+ iNKT cell population” value does the source give for `CCCCCCCCCCCCCC[C@@H](O)[C@@H](O)[C@H](CO[C@H]1O[C@H](CNC(=O)c2ccc(CCCC)cc2)[C@H](O)[C@H](O)[C@H]1O)NC(=O)c1ccc(CCCC)cc1` [analog 19, 4-butyl-N-(((2R,3R,4S,5R,6S)-6-(((2S,3S,4R)-2-(4-butylbenzamido)-3,4-dihydroxyoctadecyl)oxy)-3,4,5-trihydroxytetrahydro-2H-pyran-2-yl)methyl)benzamide] here?
Answer: The value was “stimulats human iNKT cell population; also recorded: stimulative”.
